Structures are written as SMILES.

The species named for the first assay is Rattus norvegicus. Description: In vitro anticoagulant activity of compound was determined in rat. In kind it is functional.
Regarding `CN(C)Cc1ccccc1-c1ccc(C(=O)N[C@H](CC(=O)Nc2ccc(Br)cn2)C(=O)N2CCCCC2)cc1`, the “2X PT” value stood at 1.98 µM and the “TG 2X lag” value was 0.42 µM.

Tested on in the next assay: not listed separately
Briefly: In vitro inhibitory activity against Factor Xa.
As a reminder, the IC50 is the concentration at which inhibition is half-maximal. Read a high IC50 as weaker potency in that assay. The molecule `COCCN(C)Cc1ccccc1-c1ccc(C(=O)N[C@H](CC(=O)Nc2ccc(Br)cn2)C(=O)N2CCCCC2)cc1` registered an IC50 of 0.0013 µM.
On the same count and under the same terms, for `NS(=O)(=O)c1ccccc1-c1ccc(C(=O)NCCNC(=O)c2cc3cc(Cl)ccc3[nH]2)cc1` the value was 0.76 µM.
Still for that read-out and setting: next, `NS(=O)(=O)c1ccccc1-c1ccc(C(=O)NCCNS(=O)(=O)c2ccc3cc(Br)ccc3c2)cc1`: 9.3 µM; `CN(C)C(=N)c1ccc(C(=O)N[C@H](CC(=O)Nc2ccc(Br)cn2)C(=O)N2CCCCC2)cc1`: 0.0046 µM.
The molecule `NS(=O)(=O)c1ccccc1-c1ccc(C(=O)NCCNS(=O)(=O)c2cc3cc(Cl)ccc3[nH]2)cc1` returned an IC50 of 1.9 µM.
On the same count and under the same terms, for `NS(=O)(=O)c1ccccc1-c1ccc(C(=O)NCCC(=O)Nc2ccc(Cl)cc2)cc1` the value was 0.017 µM; for `NS(=O)(=O)c1ccccc1-c1ccc(C(=O)NCCNC(=O)c2cccc(Cl)c2)cc1`, 1.5 µM; for `NS(=O)(=O)c1ccccc1-c1ccc(C(=O)NCCNC(=O)c2ccc(Br)cc2)cc1`, 0.96 µM.
Still for that read-out and setting: for `NS(=O)(=O)c1ccccc1-c1ccc(C(=O)NCCNC(=O)c2ccccc2)cc1` the value was above 10 µM.
On the same count and under the same terms, next, `COC(=O)C(CC(=O)Nc1ccc(Br)cn1)NC(=O)c1ccc(-c2ccccc2S(N)(=O)=O)cc1` (stereo not given): 0.0247 µM.
Molecule `CCC(=O)NC(CC(=O)Nc1ccc(Br)cn1)C(=O)Nc1ccc(-c2ccccc2S(N)(=O)=O)cc1` (stereo not given) registered an IC50 of 0.0365 µM.
`NS(=O)(=O)c1ccccc1-c1ccc(C(=O)NC(CC(=O)Nc2ccc(Br)cn2)C(=O)N2CCCC2)cc1` (stereo not given) displayed an IC50 of 0.0145 µM.
The same measure, in the same setting: next, `CNC(=O)C(CC(=O)Nc1ccc(Br)cn1)NC(=O)c1ccc(-c2ccccc2S(N)(=O)=O)cc1` (stereo not given): 0.0174 µM; `NS(=O)(=O)c1ccccc1-c1ccc(NC(=O)C(CC(=O)Nc2ccc(Br)cn2)NC(=O)Nc2ccccc2)cc1` (stereo not given): 0.037 µM.
Still for that read-out and setting: next, `NC(CNC(=O)c1ccc(-c2ccccc2S(N)(=O)=O)cc1)C(=O)Nc1ccc(Br)cn1` (stereo not given): 1.65 µM.
On the same count and under the same terms, next, `CN1CCN=C1c1ccc(C(=O)N[C@H](CC(=O)Nc2ccc(Cl)cn2)C(=O)N2CCCCC2)cc1`: 0.026 µM.
`COCCN(C)Cc1ccccc1-c1ccc(C(=O)N[C@@H](CC(=O)Nc2ccc(Cl)cn2)C(=O)N2CCCCC2)cc1`: the IC50 turned out to be 0.0093 µM.
The same measure, in the same setting: for `NS(=O)(=O)c1ccccc1-c1ccc(NC(=O)C(CC(=O)Nc2ccc(Br)cn2)NC(=O)c2ccncc2)cc1` (stereo not given) the value was 0.0438 µM.
In turn, `NS(=O)(=O)c1ccccc1-c1ccc(C(=O)NC(CC(=O)Nc2ccc(Br)cn2)C(=O)N2CCOCC2)cc1` (stereo not given) had an IC50 of 0.0229 µM.
For the molecule `NS(=O)(=O)c1ccccc1-c1ccc(NC(=O)C(CC(=O)Nc2ccc(Br)cn2)NC(=O)C(F)(F)F)cc1` (stereo not given), it took 0.2 µM to reach half-maximal inhibition (IC50).
Still for that read-out and setting: for `CCOC(=O)CNC(=O)C(CC(=O)Nc1ccc(Br)cn1)NC(=O)c1ccc(-c2ccccc2S(N)(=O)=O)cc1` (stereo not given) the value was 0.0033 µM; for `CN(C)C(=N)c1ccc(C(=O)N[C@H](CC(=O)Nc2ccc(Cl)cn2)C(=O)N2CCCCC2)cc1`, 0.012 µM; for `NS(=O)(=O)c1ccccc1-c1ccc(NC(=O)C(CC(=O)Nc2ccc(Br)cn2)NC(=O)C2CCCNC2)cc1` (stereo not given), 0.442 µM.
In turn, `CN(C)Cc1nccn1-c1ccc(C(=O)N[C@@H](CC(=O)Nc2ccc(Cl)cn2)C(=O)N2CCCCC2)cc1` registered a concentration for half-maximal inhibition (IC50) of 0.0092 µM.
The same measure, in the same setting: next, `NS(=O)(=O)c1ccccc1-c1ccc(C(=O)NC(CC(=O)Nc2ccc(Br)cn2)C(=O)Nc2ccccc2)cc1` (stereo not given): 0.0265 µM.
Same read-out and setting: for `CN1CCN=C1c1ccc(C(=O)N[C@@H](CC(=O)Nc2ccc(Cl)cn2)C(=O)N2CCCCC2)cc1` the value was 0.028 µM; for `NS(=O)(=O)c1ccccc1-c1ccc(C(=O)NC(CC(=O)Nc2ccc(Br)cn2)C(=O)N2CCNCC2)cc1` (stereo not given), 0.0909 µM; for `NS(=O)(=O)c1ccccc1-c1ccc(NC(=O)CCC(=O)Nc2ccc(Br)cn2)cc1`, 0.02 µM.
On the same count and under the same terms, for `NS(=O)(=O)c1ccccc1-c1ccc(NC(=O)CCNC(=O)c2ccc(Cl)s2)cc1` the value was 0.13 µM.
The molecule `CC(=O)NC(CC(=O)Nc1ccc(Br)cn1)C(=O)Nc1ccc(-c2ccccc2S(N)(=O)=O)cc1` (stereo not given) came in with an IC50 of 0.182 µM.
Still for that read-out and setting: for `NS(=O)(=O)c1ccccc1-c1ccc(NC(=O)CCC(=O)Nc2ccc(Cl)cc2)cc1` the value was 0.012 µM.
The same measure, in the same setting: next, `O=C(C[C@@H](NC(=O)c1ccc(-c2ccccc2CN2CCCC2)cc1)C(=O)N1CCCCC1)Nc1ccc(Br)cn1`: 0.001 µM; `CN1CCN=C1c1ccc(C(=O)N[C@H](CC(=O)Nc2ccc(Br)cn2)C(=O)N2CCCCC2)cc1`: 0.0082 µM; `CN1CCN(C(=O)C(CC(=O)Nc2ccc(Br)cn2)NC(=O)c2ccc(-c3ccccc3S(N)(=O)=O)cc2)CC1` (stereo not given): 0.0265 µM.
The same measure, in the same setting: next, `NCC(=O)NC(CC(=O)Nc1ccc(Br)cn1)C(=O)Nc1ccc(-c2ccccc2S(N)(=O)=O)cc1` (stereo not given): 0.15 µM.
Regarding `NS(=O)(=O)c1ccccc1-c1ccc(C(=O)NCCNS(=O)(=O)c2ccc(Cl)cc2)cc1`, the IC50 was above 10 µM.
The same measure, in the same setting: for `O=C(C[C@H](NC(=O)c1ccc(-c2ccccc2CN2CCCC2)cc1)C(=O)N1CCCCC1)Nc1ccc(Cl)cn1` the value was 0.0027 µM.
The same measure, in the same setting: next, `O=C(C[C@@H](NC(=O)c1ccc(-c2ccccc2CN2CCCC2)cc1)C(=O)N1CCCCC1)Nc1ccc(Cl)cn1`: 0.002 µM.
Same read-out and setting: next, `NC(CC(=O)Nc1ccc(Br)cn1)C(=O)Nc1ccc(-c2ccccc2S(N)(=O)=O)cc1` (stereo not given): 0.145 µM; `CN(C)Cc1nccn1-c1ccc(C(=O)N[C@@H](CC(=O)Nc2ccc(Br)cn2)C(=O)N2CCCCC2)cc1`: 0.33 µM; `CS(=O)(=O)NC(CNC(=O)c1ccc(-c2ccccc2S(N)(=O)=O)cc1)C(=O)Nc1ccc(Br)cn1` (stereo not given): 1.25 µM.
The molecule `NS(=O)(=O)c1ccccc1-c1ccc(NC(=O)C(CC(=O)Nc2ccc(Br)cn2)NC(=O)C2CCNCC2)cc1` (stereo not given) showed an IC50 of 0.194 µM.
The same measure, in the same setting: for `NS(=O)(=O)c1ccccc1-c1ccc(C(=O)NC(CC(=O)Nc2ccc(Br)cn2)C(=O)NC2CCCC2)cc1` (stereo not given) the value was 0.0159 µM.
The molecule `NS(=O)(=O)c1ccccc1-c1ccc(C(=O)NCCC(=O)Nc2ccc(Br)cc2)cc1` returned a 50% inhibitory concentration (IC50) of 0.029 µM.
The same measure, in the same setting: next, `CN(C)Cc1nccn1-c1ccc(C(=O)N[C@H](CC(=O)Nc2ccc(Br)cn2)C(=O)N2CCCCC2)cc1`: 0.0031 µM.
On the same count and under the same terms, for `O=C(C[C@H](NC(=O)c1ccc(-c2ccccc2CN2CCOCC2)cc1)C(=O)N1CCCCC1)Nc1ccc(Cl)cn1` the value was 0.0036 µM.
In the case of `O=C(C[C@H](NC(=O)c1ccc(-c2ccccc2CN2CCOCC2)cc1)C(=O)N1CCCCC1)Nc1ccc(Br)cn1`, the IC50 is 0.29 µM.
Same read-out and setting: next, `NS(=O)(=O)c1ccccc1-c1ccc(C(=O)NC(CC(=O)Nc2ccc(Br)cn2)C(=O)N2CCS(=O)(=O)CC2)cc1` (stereo not given): 0.0401 µM.
On the same count and under the same terms, for `O=C(C[C@@H](NC(=O)c1ccc(-c2ccccc2CN2CCOCC2)cc1)C(=O)N1CCCCC1)Nc1ccc(Cl)cn1` the value was 0.0018 µM.
Same read-out and setting: next, `CC(=O)NC(CNC(=O)c1ccc(-c2ccccc2S(N)(=O)=O)cc1)C(=O)Nc1ccc(Br)cn1` (stereo not given): 0.805 µM; `CNCCNC(=O)C(CC(=O)Nc1ccc(Br)cn1)NC(=O)c1ccc(-c2ccccc2S(N)(=O)=O)cc1` (stereo not given): 0.0434 µM.
The molecule `NS(=O)(=O)c1ccccc1-c1ccc(NC(=O)CCC(=O)Nc2ccc(Br)cc2)cc1` came in with an IC50 of 0.065 µM.
Regarding `NS(=O)(=O)c1ccccc1-c1ccc(NC(=O)CCC(=O)Nc2ccc(Cl)cn2)cc1`, inhibition was half-maximal at 0.037 µM (IC50).
On the same count and under the same terms, for `NS(=O)(=O)c1ccccc1-c1ccc(C(=O)NC(CC(=O)Nc2ccc(Br)cn2)C(=O)N2CCCCCC2)cc1` (stereo not given) the value was 0.00498 µM; for `NS(=O)(=O)c1ccccc1-c1ccc(C(=O)NCCNC(=O)c2ccc(Cl)s2)cc1`, 0.0057 µM; for `CCCCOC(=O)NC(CNC(=O)c1ccc(-c2ccccc2S(N)(=O)=O)cc1)C(=O)Nc1ccc(Br)cn1` (stereo not given), 1.25 µM.
The same measure, in the same setting: for `O=C(C[C@@H](NC(=O)c1ccc(-c2ccccc2CN2CCOCC2)cc1)C(=O)N1CCCCC1)Nc1ccc(Br)cn1` the value was 0.0011 µM; for `COCCN(C)Cc1ccccc1-c1ccc(C(=O)N[C@H](CC(=O)Nc2ccc(Cl)cn2)C(=O)N2CCCCC2)cc1`, 0.0048 µM; for `CN(C)CCNC(=O)C(CC(=O)Nc1ccc(Br)cn1)NC(=O)c1ccc(-c2ccccc2S(N)(=O)=O)cc1` (stereo not given), 0.0497 µM.
Still for that read-out and setting: next, `CN(C)CC(=O)NC(CC(=O)Nc1ccc(Br)cn1)C(=O)Nc1ccc(-c2ccccc2S(N)(=O)=O)cc1` (stereo not given): 0.215 µM; `COCCN(C)Cc1ccccc1-c1ccc(C(=O)N[C@@H](CC(=O)Nc2ccc(Br)cn2)C(=O)N2CCCCC2)cc1`: 0.94 µM.
Molecule `CN(C)CCN(C)C(=O)C(CC(=O)Nc1ccc(Br)cn1)NC(=O)c1ccc(-c2ccccc2S(N)(=O)=O)cc1` (stereo not given) had an IC50 of 0.0455 µM. This IC50 lies about 21-fold lower than the previous one.
The same measure, in the same setting: for `CN(C)Cc1nccn1-c1ccc(C(=O)N[C@H](CC(=O)Nc2ccc(Cl)cn2)C(=O)N2CCCCC2)cc1` the value was 0.0076 µM.
Still for that read-out and setting: next, `COc1ccc(C(=O)NCCNC(=O)c2ccc(-c3ccccc3S(N)(=O)=O)cc2)cc1`: 2.6 µM; `NS(=O)(=O)c1ccccc1-c1ccc(NC(=O)C(CC(=O)Nc2ccc(Br)cn2)NC(=O)c2cccnc2)cc1` (stereo not given): 0.0472 µM.
The same measure, in the same setting: for `NS(=O)(=O)c1ccccc1-c1ccc(C(=O)NCCNS(=O)(=O)c2cc3ccc(Cl)cc3s2)cc1` the value was 1.09 µM.
The molecule `NS(=O)(=O)c1ccccc1-c1ccc(C(=O)NCC(NC(=O)Nc2ccccc2)C(=O)Nc2ccc(Br)cn2)cc1` (stereo not given) gave an IC50 of 8.5 µM.
For `CN(C)Cc1ccccc1-c1ccc(C(=O)N[C@H](CC(=O)Nc2ccc(Br)cn2)C(=O)N2CCCCC2)cc1`, the IC50 amounted to 0.00065 µM.
Turning to `O=C(C[C@H](NC(=O)c1ccc(-c2ccccc2CN2CCCC2)cc1)C(=O)N1CCCCC1)Nc1ccc(Br)cn1`, the IC50 turned out to be 0.23 µM.
The same measure, in the same setting: next, `CN(C)C(=N)c1ccc(C(=O)N[C@@H](CC(=O)Nc2ccc(Cl)cn2)C(=O)N2CCCCC2)cc1`: 0.024 µM; `NS(=O)(=O)c1ccccc1-c1ccc(NC(=O)/C=C/C(=O)Nc2ccc(Cl)cc2)cc1` (stereo in doubt; cis): 0.067 µM.
Molecule `NS(=O)(=O)c1ccccc1-c1ccc(NC(=O)/C=C/C(=O)Nc2ccc(Cl)cc2)cc1` (stereo in doubt; trans) registered an IC50 above 10 µM.

Target in the next assay: not listed separately
Description: Binding affinity of compound towards Factor Xa.
Broadly, the Ki is the equilibrium dissociation constant of an inhibitor or competing ligand from its target. A low value points to tighter binding. With `CN(C)Cc1ccccc1-c1ccc(C(=O)N[C@H](CC(=O)Nc2ccc(Br)cn2)C(=O)N2CCCCC2)cc1`, affinity was put at a Ki of 0.00014 µM.

(Values after ChEMBL document CHEMBL1137135 (Bioorg Med Chem Lett, 2004).)
